Assay results as given in US5043450A, “8-alkoxyquinolonecarboxylic acid and salts thereof” (priority 1986, dated 1991).
≈ marks a conversion by molar mass, not a printed value.

Legend:
Test in all cases: Antibacterial spectra, MIC
Type in all cases: cell-based
[1] = system: F. varium KYA 8501; settings: Fusobacterium varium, KYA8501; 10^6 cells/ml; Gram -; read-out: MIC
[2] = system: Pseudomonas aeruginosa V-1; settings: V1, 10^6 cells/ml, Gram -, read-out: MIC
[3] = system: B. vulgatus KYA 29327; settings: Phocaeicola vulgatus, KYA29327; 10^6 cells/ml; Gram -; read-out: MIC
[4] = system: Bacilus subtilis PCI 219; settings: Bacillus subtilis, PCI219
[5] = system: Morganella morganii IID 602; settings: IID602, 10^6 cells/ml, Gram -, read-out: MIC
[6] = system: P. aeruginosa IFO 12689; settings: Pseudomonas aeruginosa, IFO12689; 10^6 cells/ml; Gram -; read-out: MIC
[7] = system: E. coli ATCC 10536; settings: Escherichia coli, ATCC10536
[8] = system: Fusobacterium mortiferum 4249; settings: 10^6 cells/ml, Gram -, read-out: MIC
[9] = system: S. aureus Smith; settings: Staphylococcus aureus; 10^6 cells/ml; Gram +; read-out: MIC
[10] = system: Peptostreptococcus anaerobius KYA 27337; settings: KYA27337, 10^6 cells/ml, Gram +, read-out: MIC

`CCOc1c(N2CCNCC2)c(F)cc2c(=O)c(C(=O)O)cn(C3CC3)c12` [Exp. 18, 1-cyclopropyl-6-fluoro-1,4-dihydro-8-ethoxy-4-oxo-7-(1-piperazinyl)-3-quinolinecarboxylic acid] gave an MIC [1] of 25 µg/mL (≈ 66.6 µM), an MIC [2] of 0.78 µg/mL (≈ 2.08 µM) and an MIC [3] of 12.5 µg/mL (≈ 33.3 µM). It also gave an MIC [4] of at most 0.05 µg/mL, an MIC [5] of 0.39 µg/mL (≈ 1.04 µM) and an MIC [6] of 3.13 µg/mL (≈ 8.34 µM). It also gave an MIC [7] of at most 0.05 µg/mL, an MIC [8] of 3.13 µg/mL (≈ 8.34 µM) and an MIC [9] of 0.39 µg/mL (≈ 1.04 µM). It also gave an MIC [10] of 3.13 µg/mL (≈ 8.34 µM).
